Where a SMILES comes first, the peptide text is derived from it.
Biological target: HLA B*1503 (Homo sapiens, UniProt P01889, A329T/A93T/A95T/C349S/D201E/D98Y/E187L/E204Q/K202T/N87E/Q94N/R155S/R180L/S121R/S35A/V306I/V36M/Y140S/Y91S)
Test: biochemical
Type: binding

Structure (SMILES)	IC50 [nM]
CC[C@H](C)[C@H](NC(=O)[C@H](CCSC)NC(=O)[C@H](C)NC(=O)[C@H](C)NC(=O)[C@@H](N)Cc1ccccc1)C(=O)N[C@H](C(=O)N[C@@H](CCCNC(=N)N)C(=O)N[C@@H](CO)C(=O)N[C@@H](Cc1ccccc1)C(=O)O)[C@@H](C)CC [3102.1048] (H-FAAMIIRSF-OH)	1.3
CSCC[C@H](NC(=O)[C@H](CC(C)C)NC(=O)[C@H](CO)NC(=O)[C@H](CC(N)=O)NC(=O)[C@H](CC(N)=O)NC(=O)[C@H](CC(C)C)NC(=O)[C@@H](N)CS)C(=O)N[C@@H](CO)C(=O)N[C@@H](Cc1ccccc1)C(=O)O [3102.1050] (H-CLNNSLMSF-OH)	0.77
CC(C)C[C@H](NC(=O)[C@H](CO)NC(=O)[C@H](CO)NC(=O)[C@@H](NC(=O)[C@H](CCC(=O)O)NC(=O)[C@@H](NC(=O)[C@H](CO)NC(=O)[C@H](CCCCN)NC(=O)[C@@H](N)CC(C)C)C(C)C)[C@@H](C)O)C(=O)O [3102.1056] (H-LKSVETSSL-OH)	3.8
CC(C)C[C@H](NC(=O)[C@@H](N)CC(N)=O)C(=O)N[C@@H](Cc1ccc(O)cc1)C(=O)N[C@@H](Cc1ccccc1)C(=O)N[C@@H](CS)C(=O)N[C@H](C(=O)N[C@@H](CCCCN)C(=O)N[C@@H](CO)C(=O)N[C@@H](Cc1ccccc1)C(=O)O)[C@@H](C)O [3102.1057] (H-NLYFCTKSF-OH)	4.3
CC[C@H](C)[C@H](NC(=O)[C@@H](NC(=O)[C@@H](NC(=O)[C@H](CCCNC(=N)N)NC(=O)[C@H](CC(N)=O)NC(=O)[C@H](Cc1ccccc1)NC(=O)[C@H](CO)NC(=O)[C@@H](N)C(C)C)C(C)C)C(C)C)C(=O)N[C@@H](Cc1ccccc1)C(=O)O [3102.1059] (H-VSFNRVVIF-OH)	1.1
CC(C)C[C@H](NC(=O)[C@H](CC(N)=O)NC(=O)[C@H](CC(C)C)NC(=O)[C@H](CCCNC(=N)N)NC(=O)[C@H](CCCNC(=N)N)NC(=O)[C@H](CO)NC(=O)[C@H](CCCCN)NC(=O)[C@@H](N)CO)C(=O)N[C@@H](Cc1ccccc1)C(=O)O [3102.1061] (H-SKSRRLNLF-OH)	2.4
CC(C)[C@H](NC(=O)[C@H](CC(=O)O)NC(=O)[C@H](CCC(=O)O)NC(=O)[C@@H](NC(=O)[C@H](CO)NC(=O)[C@@H](N)CCCCN)C(C)C)C(=O)N[C@@H](CO)C(=O)N[C@@H](C)C(=O)N[C@@H](Cc1ccccc1)C(=O)O [3102.1062] (H-KSVEDVSAF-OH)	14
CC[C@H](C)[C@H](N)C(=O)N[C@@H](CCSC)C(=O)N[C@@H](CO)C(=O)N[C@@H](CC(C)C)C(=O)N[C@@H](Cc1ccccc1)C(=O)N[C@@H](CO)C(=O)N[C@H](C(=O)N[C@@H](CO)C(=O)N[C@@H](C)C(=O)O)[C@@H](C)O [3102.1063] (H-IMSLFSTSA-OH)	7.7
CC[C@H](C)[C@H](N)C(=O)N[C@@H](CO)C(=O)N[C@@H](CO)C(=O)N[C@@H](CCCNC(=N)N)C(=O)N[C@@H](CCC(=O)O)C(=O)N[C@@H](CO)C(=O)N[C@H](C(=O)N[C@@H](CO)C(=O)N[C@@H](Cc1ccccc1)C(=O)O)C(C)C [3102.1068] (H-ISSRESVSF-OH)	12
CC[C@H](C)[C@H](NC(=O)[C@@H]1CCCN1C(=O)[C@H](CO)NC(=O)CNC(=O)[C@H](CC(=O)O)NC(=O)[C@H](CC(C)C)NC(=O)[C@@H](NC(=O)[C@H](CCCCN)NC(=O)[C@@H](N)Cc1ccccc1)C(C)C)C(=O)O [3102.1070] (H-FKVLDGSPI-OH)	0.82
CC[C@H](C)[C@H](NC(=O)[C@H](CC(N)=O)NC(=O)[C@@H](NC(=O)[C@H](CCCCN)NC(=O)[C@@H](N)Cc1ccccc1)[C@@H](C)CC)C(=O)N[C@@H](Cc1ccccc1)C(=O)N[C@@H](CCSC)C(=O)N[C@@H](C)C(=O)N[C@@H](Cc1ccccc1)C(=O)O [3102.1074] (H-FKINIFMAF-OH)	10
CC[C@H](C)[C@H](NC(=O)[C@H](CC(N)=O)NC(=O)[C@H](Cc1c[nH]cn1)NC(=O)[C@H](CCC(N)=O)NC(=O)[C@@H](N)C(C)C)C(=O)N[C@@H](CCCCN)C(=O)N[C@@H](Cc1c[nH]cn1)C(=O)N[C@@H](CO)C(=O)N[C@@H](Cc1ccccc1)C(=O)O [3102.1075] (H-VQHNIKHSF-OH)	0.2
CSCC[C@H](NC(=O)[C@H](CO)NC(=O)[C@H](CCCNC(=N)N)NC(=O)[C@@H]1CCCN1C(=O)[C@H](Cc1ccccc1)NC(=O)[C@H](CCCCN)NC(=O)[C@H](CO)NC(=O)[C@H](CCCCN)NC(=O)[C@H](C)N)C(=O)O [3102.1076] (H-AKSKFPRSM-OH)	0.26
CC[C@H](C)[C@H](NC(=O)CNC(=O)[C@H](C)NC(=O)[C@H](Cc1ccc(O)cc1)NC(=O)[C@H](CCCCN)NC(=O)[C@@H](N)CO)C(=O)N[C@@H](CC(N)=O)C(=O)N[C@H](C(=O)N[C@@H](CC(C)C)C(=O)O)[C@@H](C)CC [3102.1077] (H-SKYAGINIL-OH)	0.27
C[C@@H](O)[C@H](N)C(=O)N[C@@H](CCCCN)C(=O)N[C@@H](Cc1ccccc1)C(=O)N[C@H](C(=O)N[C@@H](CC(=O)O)C(=O)N[C@@H](Cc1ccccc1)C(=O)N[C@@H](CCC(N)=O)C(=O)N[C@@H](CC(=O)O)C(=O)N[C@@H](Cc1ccccc1)C(=O)O)[C@@H](C)O [3102.1078] (H-TKFTDFQDF-OH)	2.2
CC[C@H](C)[C@H](NC(=O)[C@H](CC(N)=O)NC(=O)[C@H](CC(N)=O)NC(=O)[C@H](Cc1ccccc1)NC(=O)[C@@H]1CCCN1C(=O)[C@H](CCCCN)NC(=O)[C@H](CCCNC(=N)N)NC(=O)[C@H](CCC(N)=O)NC(=O)[C@@H](N)Cc1ccccc1)C(=O)O [3102.1079] (H-FQRKPFNNI-OH)	8.9
CC[C@H](C)[C@H](NC(=O)[C@H](CCCCN)NC(=O)[C@@H](N)CCCNC(=N)N)C(=O)N[C@@H](CO)C(=O)N[C@@H](CO)C(=O)N[C@@H](CCCCN)C(=O)N[C@@H](CC(N)=O)C(=O)N[C@@H](CO)C(=O)N[C@@H](CCSC)C(=O)O [3102.1080] (H-RKISSKNSM-OH)	0.11
CC[C@H](C)[C@H](NC(=O)[C@H](CO)NC(=O)[C@H](CCC(N)=O)NC(=O)[C@H](CCC(N)=O)NC(=O)[C@H](CC(C)C)NC(=O)[C@H](Cc1ccccc1)NC(=O)[C@H](CC(C)C)NC(=O)[C@@H](N)C(C)C)C(=O)N[C@@H](Cc1ccccc1)C(=O)O [3102.1081] (H-VLFLQQSIF-OH)	0.61
CC[C@H](C)[C@H](NC(=O)[C@H](CO)NC(=O)[C@H](CO)NC(=O)[C@H](CCC(=O)O)NC(=O)[C@H](CC(N)=O)NC(=O)[C@H](Cc1ccccc1)NC(=O)[C@@H](NC(=O)[C@H](CCC(N)=O)NC(=O)[C@@H](N)Cc1ccccc1)C(C)C)C(=O)O [3102.1082] (H-FQVFNESSI-OH)	5
CC(C)C[C@H](NC(=O)[C@H](CCCCN)NC(=O)[C@H](CC(N)=O)NC(=O)[C@@H](NC(=O)[C@H](Cc1ccccc1)NC(=O)[C@H](CS)NC(=O)[C@@H](NC(=O)[C@H](CCCCN)NC(=O)[C@@H](N)CCCCN)C(C)C)C(C)C)C(=O)O [3102.1086] (H-KKVCFVNKL-OH)	4.5
CC(C)C[C@H](NC(=O)[C@H](C)NC(=O)[C@H](CCC(N)=O)NC(=O)[C@H](CCC(N)=O)NC(=O)[C@@H](NC(=O)[C@@H](N)Cc1ccccc1)[C@@H](C)O)C(=O)N[C@@H](CO)C(=O)N[C@@H](CO)C(=O)N[C@@H](Cc1ccccc1)C(=O)O [3102.1087] (H-FTQQALSSF-OH)	6.4
CC[C@H](C)[C@H](NC(=O)[C@H](CC(C)C)NC(=O)[C@@H](NC(=O)[C@H](CO)NC(=O)[C@@H](NC(=O)[C@H](CCCCN)NC(=O)[C@H](C)N)[C@@H](C)O)[C@@H](C)O)C(=O)N[C@@H](Cc1ccccc1)C(=O)N[C@@H](Cc1ccccc1)C(=O)O [3102.1088] (H-AKTSTLIFF-OH)	1.6
CSCC[C@H](NC(=O)[C@H](CC(C)C)NC(=O)[C@H](CCSC)NC(=O)[C@@H](N)Cc1ccccc1)C(=O)N[C@@H](CCC(=O)O)C(=O)N[C@H](C(=O)N[C@@H](CCSC)C(=O)N[C@@H](Cc1ccccc1)C(=O)N[C@@H](Cc1ccccc1)C(=O)O)[C@@H](C)O [3102.1089] (H-FMLMETMFF-OH)	0.19
CC[C@H](C)[C@H](NC(=O)[C@@H](NC(=O)[C@@H](NC(=O)[C@H](C)NC(=O)[C@H](CCSC)NC(=O)[C@H](Cc1ccc(O)cc1)NC(=O)[C@H](C)NC(=O)[C@@H](N)CCCNC(=N)N)[C@@H](C)O)[C@@H](C)O)C(=O)N[C@@H](CC(C)C)C(=O)O [3102.1091] (H-RAYMATTIL-OH)	18
CSCC[C@H](NC(=O)[C@H](C)NC(=O)[C@H](CC(C)C)NC(=O)[C@H](CO)NC(=O)[C@H](CCCCN)NC(=O)[C@@H](N)CCSC)C(=O)N[C@H](C(=O)N[C@@H](C)C(=O)N[C@@H](Cc1ccccc1)C(=O)O)[C@@H](C)O [3102.1092] (H-MKSLAMTAF-OH)	0.18
CC[C@H](C)[C@H](N)C(=O)N[C@@H](CCSC)C(=O)N[C@@H](C)C(=O)N[C@@H](CC(C)C)C(=O)N[C@H](C(=O)N[C@H](C(=O)N[C@@H](CO)C(=O)N[C@H](C(=O)N[C@@H](Cc1ccccc1)C(=O)O)[C@@H](C)CC)C(C)C)[C@@H](C)CC [3102.1093] (H-IMALIVSIF-OH)	4.5
CC[C@H](C)[C@H](NC(=O)[C@@H](NC(=O)[C@@H]1CCCN1C(=O)[C@H](CCC(=O)O)NC(=O)[C@H](CO)NC(=O)[C@H](CO)NC(=O)[C@H](CCSC)NC(=O)[C@@H](N)Cc1ccc(O)cc1)[C@@H](C)CC)C(=O)N[C@@H](Cc1ccccc1)C(=O)O [3102.1094] (H-YMSSEPIIF-OH)	0.3
CC[C@H](C)[C@H](NC(=O)[C@@H](NC(=O)[C@H](CC(N)=O)NC(=O)[C@H](CCC(=O)O)NC(=O)[C@@H]1CCCN1C(=O)[C@H](CO)NC(=O)[C@H](C)NC(=O)[C@H](CCSC)NC(=O)[C@@H](N)Cc1ccccc1)C(C)C)C(=O)O [3102.1095] (H-FMASPENVI-OH)	6.4
CC[C@H](C)[C@H](NC(=O)[C@@H](NC(=O)CNC(=O)[C@H](CCC(=O)O)NC(=O)[C@@H]1CCCN1C(=O)[C@H](CCC(N)=O)NC(=O)[C@@H](N)CCCCN)C(C)C)C(=O)N[C@@H](CC(C)C)C(=O)N[C@@H](Cc1ccccc1)C(=O)O [3102.1100] (H-KQPEGVILF-OH)	3.7
C[C@@H](O)[C@H](NC(=O)[C@H](CO)NC(=O)CNC(=O)[C@H](CCCNC(=N)N)NC(=O)[C@H](CC(N)=O)NC(=O)CNC(=O)[C@@H](N)CO)C(=O)N[C@@H](CO)C(=O)N[C@@H](Cc1ccccc1)C(=O)O [3102.1101] (H-SGNRGSTSF-OH)	25
